Where two headings read alike, the source gives them in different places.

The target of series [1] is T1, hPOSH (Homo sapiens, UniProt Q7Z6J0).
T1 construct: a fused GST-RING subunit of POSH protein and two fluorophore-conjugated detection reagents
T1 sequence (Q7Z6J0 12-53 limits assumed): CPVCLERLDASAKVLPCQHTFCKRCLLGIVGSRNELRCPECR
Kind of series: HTS TR-FRET assay of POSH autoubiquitination. Format: biochemical. Conditions: in vitro TR-FRET, GST tagged hPOSH with E1 and UbcH5c; read-out: IC50, inhibition of POSH autoubiquitination. Here is the method: In order to test compounds as inhibitors of POSH, a ubiquitin protein ligase (E3) containing a RING domain that mediates its own ubiquitination in a RING finger-dependent manner in the presence of E1 and E2, a HTS (high-throughput screening) homogeneous TR-FRET (Time-Resolved Fluorescence Resonance Energy Transfer) assay was conducted to monitor POSH autoubiquitination.
The assay employs an ubiquitin-activating enzyme (E1) and an ubiquitin-conjugating enzyme (E2), a fused GST-RING subunit of POSH protein and two fluorophore-conjugated detection reagents, namely anti-GSTXL665 and europium cryptate-labeled ubiquitin. This homogeneous assay is based on FRET between a Eu^3+ cryptate donor and a second fluorescent label (acceptor), allophycocyanin. Allophycocyanin, a 105 kDa phycobiliprotein, is crosslinked to ensure its stability.
The ubiquitination of POSH by ubiquitin cryptate and binding of the anti-GST tagged XL665 brings the fluorophores into close proximity allowing FRET reaction to occur (see diagram).
Self-ubiquitination of hPOSH was determined by homogenous time-resolved fluorescence resonance energy transfer assay (TR-FRET). […]
where: S=actual fluorescence, B=Fluorescence obtained in parallel incubation without cb1-b, C=Fluorescence obtained in reaction without added compounds. […]

Series [2] deals with HIV-1. Kind of series: Assay for virus release (HIV-1 p24 / VLP release) in Jurkat cells transfected with pNLenv1. Format: cell-based. Conditions: Human immunodeficiency virus 1, 24 h, VLP release one day after transfection, anti-CA immunoblot. The protocol: The POSH inhibitor Compound 1 was tested for its efficiency of viral budding and GAG expression and processing in treated and untreated Jurkat cells. The concentration of extracellular GAG p24 was used as an indication of viral budding.
Jurkat cells were incubated with Compound 1 for either 1 or 3 days. The next day, cells were transfected with the plasmid pNLenv1 (2 μg/ml). Virus-like particle (VLP) release was determined one day after transfection as follows: the culture medium of virus-expressing cells was collected and centrifuged at 500×g for 10 minutes. The resulting supernatant was passed through a 0.45 μm-pore filter and the filtrate was centrifuged at 14,000×g for 2 hours at 4° C. The corresponding cells were washed three times with phosphate-buffered saline (PBS) and then solubilized by incubation on ice for 15 minutes in lysis buffer containing the following components: 50 mM Hepes-NaOH, (pH 7.5), 150 mM NaCl, 1.5 mM MgCl2, 0.5% NP-40, 0.5% sodium deoxycholate, 1 mM EDTA, 1 mM EGTA and 1:200 dilution of protease inhibitor cocktail (EMD Biosciences, Inc.). […] The CA was detected after incubation with a secondary anti-rabbit horseradish peroxidase-conjugated antibody, and detected by Enhanced Chemi-Luminescence (ECL) (Amersham Biosciences, Corp.) and detected by fluorescence imaging (Typhoon Instrument, Amersham Biosciences, Corp.). […]
(Immunoblotting shows a protein as a band on a membrane.)

Series [3] relates to HIV-1IIIB. Kind of series: HIV cytoprotection assay, CEM-SS cells infected with HIV-1IIIB (MTS). Format: cell-based. Particulars: for IC50: read-out: IC50 (concentration inhibiting virus replication by 50%). The protocol:
(§1) For the HIV cytoprotection assay, CEM-SS cells were used and the viruses HIV-1IIIB, HIV-1RF, or HIV-2ROD.
(§2) Briefly, virus and cells were mixed in the presence of a test compounds and incubated for 6 days. […] Each assay plate contained the following controls: cell control wells (cells only), virus control wells (cells plus virus), compound toxicity control wells (cells plus compound only), compound colorimetric control wells (compound only), as well as the experimental wells (compound plus cells plus virus). Cytoprotection and compound cytotoxicity were assessed by MTS (CellTiter® 96 Reagent, Promega, Madison Wis.) dye reduction, and the IC50 (concentration inhibiting virus replication by 50%), TC50 (concentration resulting in 50% cell death) and a calculated T1 (therapeutic index TC50/IC50) were obtained. Each assay included the HIV reverse transcriptase inhibitor AZT as a positive control.

Series [4] can be described thus: Compound cytotoxicity on uninfected CEM-SS cells (MTS). Format: cell-based. Particulars: human, read-out: TC50 (concentration resulting in 50% cell death). Here is the method:
as §2

For series [5], the system named is HIV-2ROD. Kind of series: HIV cytoprotection assay, CEM-SS cells infected with HIV-2ROD (MTS). Format: cell-based. The protocol: as §1, §2

On to `Cc1cc(C)nc(NS(=O)(=O)c2cc(Cl)ccc2Cl)n1` [Compound 1, 2,5-dichloro-N-(4,6-dimethylpyrimidin-2-yl)benzenesulfonamide], for which the IC50 came to 12 µM in series [1]; 100 µM in series [2]; 62 µM in series [3] (Human immunodeficiency virus 1, CEM-SS, 144 h). For the same compound, in series [3] (HIV-1IIIB, CEM-SS cells), the “Antiviral Index (TI), TC50/IC50” value is on record as greater than 1.61. The CC50 at 6 days in series [4] (Table 1 (HIV-1IIIB experiment)) was greater than 100 µM.
Regarding `Cc1cc(C)nc(NS(=O)(=O)c2cc(Cl)ccc2Cl)c1` [Compound 2, 2,5-dichloro-N-(4,6-dimethylpyridin-2-yl)benzenesulfonamide], the “Antiviral Index (TI), TC50/IC50” value is reported as 28.5 in series [3] (HIV-1IIIB, CEM-SS cells) and 3.80 in series [5]. For the same compound, the IC50 in series [3] (Human immunodeficiency virus 1, 144 h, HIV-1IIIB, CEM-SS cells, 6 days) was determined as 3.99 µM; in series [5] (Human immunodeficiency virus 2, 144 h, 6 days, read-out: IC50 (concentration inhibiting virus replication by 50%)), 44.4 µM. Moreover, the CC50 at 6 days in series [4] (Table 1 (HIV-1IIIB experiment)) was found to be 114 µM; in series [4] (Table 2 (HIV-2ROD experiment)) it was 169 µM.

(Values after patent US20120015967A1, “PYRIMIDINE AND PYRIDINE DERIVATIVES AS POSH AND POSH-AP INHIBITORS” (PROTEOLOGICS, LTD., priority 2007, published 2012).)
